Test results: the NIST ThermoML archive (doi:10.1016/j.fluid.2011.04.022)

Settings: Liquid, Vibrating tube method

FC(F)(F)CC(F)(F)F [1,1,1,3,3,3-hexafluoropropane]
mass density [kg/m3]
Settings	293.38 K	303.23 K	313.1 K	322.94 K	333.06 K	343.19 K	353.23 K	363.22 K	373.17 K
1000 kPa	1380.41	1346.41	1310.15	1272.73	1230.59	–	–	–	–
3000 kPa	1389.7	1356.85	1322.54	1287.52	1248.74	1207.31	1161.43	–	–
5000 kPa	1398.14	1366.62	1333.75	1300.71	1264.58	1226.45	1185.57	1140.64	1091.26
10000 kPa	1417.22	1388.23	1358.32	1328.74	1297.09	1264.58	1230.77	1195.26	1158.13
15000 kPa	1434.22	1407.04	1379.33	1352.16	1323.56	1294.29	1264.63	1233.73	1202.21
20000 kPa	1449.45	1423.79	1397.77	1372.4	1345.92	1319.04	1292.08	1264.17	1236.05
25000 kPa	1463.39	1438.88	1414.16	1390.33	1365.48	1340.43	1315.3	1289.66	1263.9
30000 kPa	1476.18	1452.75	1429.13	1406.5	1382.82	1359.27	1335.89	1311.7	1287.72
35000 kPa	1488.18	1465.54	1442.8	1421.01	1398.61	1376.24	1354.11	1331.22	1308.62
40000 kPa	1499.36	1477.52	1455.53	1434.57	1413.18	1391.75	1370.58	1348.77	1327.34
50000 kPa	1519.84	1499.35	1478.52	1459.05	1439.06	1419.24	1399.7	1379.54	1359.88
60000 kPa	1538.35	1518.78	1499.21	1480.75	1461.86	1443.29	1424.96	1406.01	1387.66
70000 kPa	1555.2	1536.58	1517.63	1500.21	1482.19	1464.6	1447.34	1429.34	1412.03

FC(F)CC(F)(F)F [1,1,1,3,3-pentafluoropropane]
mass density [kg/m3]
Settings	293.84 K	303.46 K	313.18 K	323 K	332.83 K	343.01 K	353 K	362.91 K	372.94 K
1000 kPa	1352.16	1326.31	1299.2	1270.55	1240.26	1206.92	–	–	–
3000 kPa	1357.97	1332.8	1306.56	1278.98	1250.02	1218.46	1185.75	1150.79	1112.26
5000 kPa	1363.53	1338.98	1313.51	1286.86	1259.06	1228.97	1198.11	1165.55	1130.36
10000 kPa	1376.42	1353.32	1329.44	1304.71	1279.16	1251.88	1224.38	1195.94	1165.97
15000 kPa	1388.34	1366.31	1343.73	1320.47	1296.63	1271.37	1246.17	1220.45	1193.67
20000 kPa	1399.29	1378.22	1356.77	1334.65	1312.15	1288.45	1265.01	1241.23	1216.58
25000 kPa	1409.54	1389.33	1368.61	1347.58	1326.17	1303.77	1281.67	1259.38	1236.4
30000 kPa	1419.03	1399.65	1379.73	1359.46	1339.02	1317.65	1296.64	1275.54	1253.82
35000 kPa	1428.09	1409.33	1390.16	1370.64	1350.93	1330.42	1310.33	1290.2	1269.55
40000 kPa	1436.79	1418.45	1399.89	1381.03	1362.03	1342.2	1322.95	1303.67	1283.89
50000 kPa	1452.73	1435.43	1417.82	1400.08	1382.12	1363.61	1345.62	1327.67	1309.28
60000 kPa	1467.39	1450.88	1434.07	1417.12	1400.21	1382.71	1365.63	1348.77	1331.43
70000 kPa	1480.99	1465.1	1449.07	1432.87	1416.64	1399.92	1383.75	1367.68	1351.23
